According to patent US10202361B2, “Pyridazinones as herbicides” (E I DU PONT DE NEMOURS AND COMPANY, priority 2014, dated 2019):
Where two headings read alike, the source gives them in different places.

Assays:
Format in all cases: in vivo
[1] = tested on: crabgrass, Large (large crabgrass, Digitaria sanguinalis); test: Test A pre-/postemergence greenhouse herbicide test; conditions: Digitaria sanguinalis, 240 h, 0 to 100 scale (0 no effect, 100 complete control), approx. 10 d, read-out: Plant response rating, Crabgrass, Large; for pest or weed control at 125 g/ha: 125 g ai/ha; for pest or weed control at 500 g/ha: 500 g ai/ha
Procedure, shortened: (§1)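 Greenhouse pot test, loam/sand soil. Pre: directed soil spray at seeding; post: foliar spray, 1–2 leaf, 2–10 cm height, same day. Read-out ~10 d: visual % control, 0–100 scale vs untreated.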

[2] = tested on: velvetleaf (Abutilon theophrasti); test: as above; conditions: Abutilon theophrasti, 240 h, 0 to 100 scale (0 no effect, 100 complete control), approx. 10 d, read-out: Plant response rating, Velvetleaf; for pest or weed control at 125 g/ha: 125 g ai/ha; for pest or weed control at 500 g/ha: 500 g ai/ha
Procedure, shortened: as §1

[3] = tested on: morningglory (Ipomoea spp.); test: as above; conditions: Ipomoea, 240 h, 0 to 100 scale (0 no effect, 100 complete control), approx. 10 d, read-out: Plant response rating, Morningglory; for pest or weed control at 125 g/ha: 125 g ai/ha; for pest or weed control at 500 g/ha: 500 g ai/ha
Procedure, shortened: as §1

[4] = tested on: wheat (Triticum aestivum); test: as above; conditions: Triticum aestivum, 240 h, 0 to 100 scale (0 no effect, 100 complete control), approx. 10 d, read-out: Plant response rating, Wheat; for plant injury at 125 g/ha: 125 g ai/ha; for plant injury at 500 g/ha: 500 g ai/ha
Procedure, shortened: as §1

[5] = tested on: corn (Zea mays); test: as above; conditions: Zea mays, 240 h, 0 to 100 scale (0 no effect, 100 complete control), approx. 10 d; for Corn plant response rating (crop injury, 0 = no effect, 100 = complete kill) at 125 g/ha: 125 g ai/ha; for Corn plant response rating (crop injury, 0 = no effect, 100 = complete kill) at 500 g/ha: 500 g ai/ha
Procedure, shortened: as §1

[6] = tested on: foxtail, giant (giant foxtail, Setaria faberii); test: as above; conditions: Setaria faberi, 240 h, 0 to 100 scale (0 no effect, 100 complete control), approx. 10 d, read-out: Plant response rating, Foxtail, Giant; for pest or weed control at 125 g/ha: 125 g ai/ha; for pest or weed control at 500 g/ha: 500 g ai/ha
Procedure, shortened: as §1

[7] = tested on: barnyardgrass (Echinochloa crus-galli); test: as above; conditions: Echinochloa crus-galli, 240 h, 0 to 100 scale (0 no effect, 100 complete control), approx. 10 d, read-out: Plant response rating, Barnyardgrass; for pest or weed control at 125 g/ha: 125 g ai/ha; for pest or weed control at 500 g/ha: 500 g ai/ha
Procedure, shortened: as §1

[8] = tested on: pigweed (Amaranthus retroflexus); test: as above; conditions: Amaranthus retroflexus, 240 h, 0 to 100 scale (0 no effect, 100 complete control), approx. 10 d, read-out: Plant response rating, Pigweed; for pest or weed control at 125 g/ha: 125 g ai/ha; for pest or weed control at 500 g/ha: 500 g ai/ha
Procedure, shortened: as §1

[9] = tested on: oat, wild (wild oat, Avena fatua); test: Test C pre-/postemergence greenhouse herbicide test; conditions: Postemergence
Procedure, shortened: (§2)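 Seeds in loam–sand blend sprayed preemergence, and 1- to 4-leaf plants (2–18 cm) sprayed postemergence, with compounds in non-phytotoxic solvent plus surfactant. Visual rating versus controls after 13–15 d in greenhouse, 0 (no effect) to 100 (complete control).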

[10] = tested on: barnyardgrass (Echinochloa crus-galli); test: as above; conditions: Barnyardgrass
Procedure, shortened: as §2

**Q.** Which pest or weed control at 125 g/ha ([1]; post-emergence, Postemergence) does the source give for `COc1cc(=O)n(-c2ccc(C(F)(F)F)cc2)nc1Cc1ccnc(C(F)(F)F)c1` [Compound 16, 5-methoxy-2-[4-(trifluoromethyl)phenyl]-6-[[2-(trifluoromethyl)-4-pyridinyl]methyl]-3(2H)-pyridazinone] here?
**A.** 90%

**Q.** What about the pest or weed control at 500 g/ha ([1]; post-emergence, Postemergence) of the same compound?
**A.** 100%

**Q.** And the pest or weed control at 125 g/ha ([1]; pre-emergence, Preemergence)?
**A.** 100%

**Q.** And the pest or weed control at 500 g/ha ([1]; pre-emergence, Preemergence)?
**A.** 100%

**Q.** And the pest or weed control at 125 g/ha ([2]; post-emergence, Postemergence)?
**A.** 80%

**Q.** And the pest or weed control at 500 g/ha ([2]; post-emergence, Postemergence)?
**A.** 100%

**Q.** And the pest or weed control at 125 g/ha ([2]; pre-emergence, Preemergence)?
**A.** 30%

**Q.** What about the pest or weed control at 500 g/ha ([2]; pre-emergence, Preemergence) of the same compound?
**A.** 80%

**Q.** What about the pest or weed control at 125 g/ha ([3]; post-emergence, Postemergence) of the same compound?
**A.** 90%

**Q.** What about the pest or weed control at 500 g/ha ([3]; post-emergence, Postemergence) of the same compound?
**A.** 100%

**Q.** And the pest or weed control at 125 g/ha ([3]; pre-emergence, Preemergence)?
**A.** 80%

**Q.** What about the pest or weed control at 500 g/ha ([3]; pre-emergence, Preemergence) of the same compound?
**A.** 80%

**Q.** What about the plant injury at 125 g/ha ([4]; post-emergence, Postemergence) of the same compound?
**A.** 60%

**Q.** What about the plant injury at 500 g/ha ([4]; post-emergence, Postemergence) of the same compound?
**A.** 70%

**Q.** What about the plant injury at 125 g/ha ([4]; pre-emergence, Preemergence) of the same compound?
**A.** 20%

**Q.** And the plant injury at 500 g/ha ([4]; pre-emergence, Preemergence)?
**A.** 70%

**Q.** What about the Corn plant response rating (crop injury, 0 = no effect, 100 = complete kill) at 125 g/ha ([5]; post-emergence, Postemergence) of the same compound?
**A.** 20%

**Q.** And the Corn plant response rating (crop injury, 0 = no effect, 100 = complete kill) at 500 g/ha ([5]; post-emergence, Postemergence)?
**A.** 80%

**Q.** And the Corn plant response rating (crop injury, 0 = no effect, 100 = complete kill) at 125 g/ha ([5]; pre-emergence, Preemergence)?
**A.** 40%

**Q.** What about the Corn plant response rating (crop injury, 0 = no effect, 100 = complete kill) at 500 g/ha ([5]; pre-emergence, Preemergence) of the same compound?
**A.** 70%

**Q.** What about the pest or weed control at 125 g/ha ([6]; post-emergence, Postemergence) of the same compound?
**A.** 90%

**Q.** And the pest or weed control at 500 g/ha ([6]; post-emergence, Postemergence)?
**A.** 90%

**Q.** What about the pest or weed control at 125 g/ha ([6]; pre-emergence, Preemergence) of the same compound?
**A.** 100%

**Q.** What about the pest or weed control at 500 g/ha ([6]; pre-emergence, Preemergence) of the same compound?
**A.** 100%

**Q.** What about the pest or weed control at 125 g/ha ([7]; post-emergence, Postemergence) of the same compound?
**A.** 80%

**Q.** What about the pest or weed control at 500 g/ha ([7]; post-emergence, Postemergence) of the same compound?
**A.** 90%

**Q.** And the pest or weed control at 125 g/ha ([7]; pre-emergence, Preemergence)?
**A.** 90%

**Q.** And the pest or weed control at 500 g/ha ([7]; pre-emergence, Preemergence)?
**A.** 100%

**Q.** And the pest or weed control at 125 g/ha ([8]; post-emergence, Postemergence)?
**A.** 100%

**Q.** What about the pest or weed control at 500 g/ha ([8]; post-emergence, Postemergence) of the same compound?
**A.** 100%

**Q.** And the pest or weed control at 125 g/ha ([8]; pre-emergence, Preemergence)?
**A.** 100%

**Q.** What about the pest or weed control at 500 g/ha ([8]; pre-emergence, Preemergence) of the same compound?
**A.** 100%

**Q.** What about the Plant response rating ([9]; 31 g ai/ha) of the same compound?
**A.** 15

**Q.** What about the Plant response rating ([9]; 62 g ai/ha) of the same compound?
**A.** 30

**Q.** And the Plant response rating ([9]; 125 g ai/ha)?
**A.** 40

**Q.** What about the Plant response rating ([9]; 250 g ai/ha) of the same compound?
**A.** 60

**Q.** And the Plant response rating ([10]; Postemergence, 31 g ai/ha)?
**A.** 10

**Q.** And the Plant response rating ([10]; Postemergence, 62 g ai/ha)?
**A.** 10

**Q.** What about the Plant response rating ([10]; Postemergence, 125 g ai/ha) of the same compound?
**A.** 25

**Q.** And the Plant response rating ([10]; Postemergence, 250 g ai/ha)?
**A.** 35

**Q.** And the Plant response rating ([10]; Preemergence, 31 g ai/ha)?
**A.** 75

**Q.** What about the Plant response rating ([10]; Preemergence, 62 g ai/ha) of the same compound?
**A.** 80

**Q.** What about the Plant response rating ([10]; Preemergence, 125 g ai/ha) of the same compound?
**A.** 95

**Q.** And the Plant response rating ([10]; Preemergence, 250 g ai/ha)?
**A.** 100
